# Laboratory results published in patent US10780061B2, “Composition comprising farnesol and use thereof” (Daegu Gyongbuk Institute of Science and Technology, priority 2014, dated 2020).
# Experiments:
# [1] = GA muscle mass, lean mass and heart mass of mice according to farnesol administration; format: in vivo, mouse
# Protocol: 22-month-old female mice (weighing 30 g) are fed with a control diet and a farnesol diet for 4 months. That is, 22-month-old mice are fed for 4 months, and then 26-month-old mice are analyzed.
# [2] = Energy expenditure of old mice (Oxylet calorimetry); format: in vivo, mouse; conditions: farnesol diet 4 months
# Protocol: 22-month-old female mice (weighing 30 g) are fed with a control diet and a farnesol diet for 4 months. That is, 22-month-old mice are fed for 4 months, and then 26-month-old mice are analyzed. […] The same mouse is used as a control group, except that it is fed with a diet containing no farnesol. Muscle strength, energy expenditure, glucose tolerance, and fat accumulation of each mouse are evaluated. […] To measure energy expenditures of old mice administered with farnesol, mice are bred in a measurement apparatus, Oxylet system (calorimetry apparatus, Panlab Harvard apparatus) for 2 days. A METABOLISM software connected with metabolic measurement modules is used for analysis of energy expenditure.
# [3] = target: T1, PARIS (Mus musculus, UniProt Q3U133); assay: Immunoprecipitation analysis for PARIS farnesylation in myoblasts; format: cell-based
# T1 construct: endogenous in cells; host or cells: C2C12 myoblasts
# Protocol: C2C12 cells are cultured in the presence of farnesol, and cell lysate is subjected to immunoprecipitation. As an experimental group, C2C12 cells are cultured in the presence of 10 uM farnesol for 24 hours, and also cultured in the differentiation medium described in Section 2 of Example 1 for 24 hours by adding 10 uM farnesol according to a culturing schedule, that is, at 0 day, 1 day, 2 days, 3 days, and 4 days (hereinafter, also referred to as ‘D0, D1, D2, D3 and D4’ or ‘D0-D04’). Next, a cell lysis buffer (20 mM Tris-HCl, pH 8, 150 mM NaCl, 1% Triton X, Proteinase Inhibitor) is added to the harvested cells, and cell lysis is allowed under refrigeration for 60 minutes, followed by centrifugation at 13,000 rpm for 20 minutes. A supernatant is removed by 50 uL of protein A/G-agarose in advance, and a target protein antibody is reacted for 12 hours or longer. The resultant is mixed with protein A/G-agarose beads, and stirred for 1 hour. The beads are washed with a cold lysis buffer at a low concentration three times to remove abnormal protein binding. The obtained sample is mixed with a 2×SDS sample buffer (0.125 M Tris-HCl (pH 6.8), 4% SDS, 10% β-mercaptoethanol, 18% glycerol, and 0.1% Bromophenol Blue), and then electrophoresed on 8% SDS-PAGE. […]
# [4] = system: PARIS; assay: Immunoprecipitation analysis for PARIS in tibialis anterior muscles; format: in vivo, mouse; conditions: 4-month-old mice fed with farnesol 0, 1, 2, 3 days
# Protocol: To examine whether farnesol increases PARIS farnesylation in muscles, immunoprecipitation of PARIS is performed in tibialis anterior muscles of 4-month-old mice (female, 22 g) fed with farnesol for a predetermined period, that is, 0, 1, 2, and 3 days. The tibialis anterior muscles which are removed from the mice fed with farnesol are mixed with a lysis buffer (10 mM Tris-HCl, pH 7.4, 150 mM NaCl, 5 mM EDTA, 1% triton X-100, 10 mM Na-β-glycerophosphate, and Complete Protease Inhibitor Mixture (Roche)), and homogenized using a Diax 900 tissue homogenizer. The tissues are left under refrigeration for 30 minutes, and centrifuged at 52,000 rpm for 20 minutes. A supernatant is used for immunoprecipitation.
# [5] = old animal, farnesol diet 4 months
# T1 sequence (Q3U133 whole entry): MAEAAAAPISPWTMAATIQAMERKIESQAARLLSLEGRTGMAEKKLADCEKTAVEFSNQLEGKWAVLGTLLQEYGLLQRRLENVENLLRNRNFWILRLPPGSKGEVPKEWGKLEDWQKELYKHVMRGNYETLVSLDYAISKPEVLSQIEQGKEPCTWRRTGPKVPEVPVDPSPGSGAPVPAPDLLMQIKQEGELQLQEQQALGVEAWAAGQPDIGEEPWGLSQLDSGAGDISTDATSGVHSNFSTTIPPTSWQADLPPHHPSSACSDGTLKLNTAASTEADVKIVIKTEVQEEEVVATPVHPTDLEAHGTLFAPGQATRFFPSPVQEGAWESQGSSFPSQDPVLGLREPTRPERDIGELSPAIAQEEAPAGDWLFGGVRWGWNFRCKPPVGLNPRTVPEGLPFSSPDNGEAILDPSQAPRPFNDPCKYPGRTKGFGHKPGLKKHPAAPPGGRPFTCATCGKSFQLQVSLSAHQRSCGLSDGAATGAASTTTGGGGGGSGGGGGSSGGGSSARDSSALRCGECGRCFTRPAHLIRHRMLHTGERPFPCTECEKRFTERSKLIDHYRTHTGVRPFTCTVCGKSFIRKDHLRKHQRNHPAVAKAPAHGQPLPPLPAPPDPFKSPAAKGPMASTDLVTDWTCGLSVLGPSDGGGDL
compound,measurement,setting,value
"CC(C)=CCC/C(C)=C/CC/C(C)=C/CO [farnesol, (2E,6E)-3,7,11-trimethyldodeca-2,6,10-trien-1-ol]",GA muscle mass,[1]; [5],0.099 g
same,heart mass (versus control old animal),[1]; [5],0.156 g
same,lean mass,[1]; [5],15.3 g
same,side effects such as muscular hypertrophy,"[1]; old animals, farnesol diet 4 months",does not cause side effects such as muscular hypertrophy
same,heart mass (versus control young animal),"[1]; printed as farnesol old animal, compared with control young animal",0.115 g
same,energy expenditure,[2],significantly increased
same,farnesylated PARIS level,"[3]; 10 uM farnesol, D0-D4",further increases
same,PGC-1α expression,[3]; 10 uM farnesol-treated myoblasts,increased
same,farnesylated PARIS level in tibialis anterior muscle,[4],further increases
